Assay results: article PMC9658513, “Discovery of Compounds That Selectively Repress the Amyloidogenic Processing of the Amyloid Precursor Protein: Design, Synthesis and Pharmacological Evaluation of Diphenylpyrazoles” (International Journal of Molecular Sciences, 2022)
Where two headings read alike, the source gives them in different places.

Key:
Assay type in all cases: cell-based, human
Aβ1–40 peptide secretion = assay: Aβ1–40 secretion in cell medium by ELISA
Method in brief: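 SY5Y-APP^WT cells (SH-SY5Y human neuroblastoma stably expressing human wild-type APP695) were treated with compounds for 24 h in supplemented DMEM at 37 °C. Secreted Aβ1–40 and Aβ1–42 were quantified in the collected, centrifuged conditioned medium by ELISA, in pg/mL.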

[1] = tested on: AICD (APP intracellular domain); assay: AICD level by Western blotting in SY5Y-APP^WT cells; conditions: concentration increasing AICD 20-fold vs untreated control, read-out: AICD (C20)
Method in brief: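 SH-SY5Y cells stably expressing human wild-type APP695 treated with compounds for 24 h at 37 °C. αCTF and AICD measured by Western blot of lysates (10 µg protein, 12% Bis-Tris gels) as band intensity; C20 is concentration raising these fragments 20-fold over control.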

p62/LC3 = assay: Ratio between p62 and LC3 expression levels; conditions: compound at 3 µM, 24 h, SY5Y-APP^wt cells
Description: Compounds from both series were selected to first determine the potential relationship between the repression of Aβ1–x production and the increased expression of LC3 and p62. […] We then also considered the ratio between the p62 and LC3 expression levels.
Figure 3 Effect of compounds 24, 33, 34, 57, 65, 67, 70, and 71 on the autophagic flux in SY5Y-APP^wt cells. […] Cell lysates were immunolabeled with the following antibodies: p62 (a), LC3 (b), and β-actin. Statistical significance was set at * p < 0.05, ** p < […], *[…], **** p < 0.0001, and ns as not significant.

in vitro = conditions: human
Method in brief: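 Cells seeded at 3 × 10^4 per well, attached 24 h, then exposed to drug for 72 h in DMEM with 10% SVF. Viability by MTS colorimetric assay, absorbance at 490 nm.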

[2] = Homo sapiens, SY5Y-APP^WT cells, 24 h treatment, mean ± SD of at least three experiments in triplicate, read-out: Aβ1–40 IC50
[3] = Homo sapiens, Aβ1–40 and Aβ1–42 not distinguished, read-out: IC50 for Aβ secretion (Aβ1–x production)

| Molecule | IC50 (Aβ1–40 peptide secretion; [2]) | IC50 (Aβ1–40 peptide secretion; [3]) | IC50 (Aβ1–40 peptide secretion; SY5Y-APP^WT cells, 24 h treatment, mean ± SD of at least three experiments in triplicate, read-out: Aβ1–40 IC50) | EC (20-fold increase) ([1]; Homo sapiens) | p62/LC3 (p62/LC3) | CC50 at 72 h (in vitro) | EC (20-fold increase) [1] |
| --- | --- | --- | --- | --- | --- | --- | --- |
| CN(C)CCCc1ccc(-c2nn(-c3ccc(CN(C)C)cc3)cc2CN(C)C)cc1 [Compound 24, 3-[4-[4-(Dimethylaminomethyl)-1-[4-(dimethylaminomethyl)phenyl] Pyrazol-3-yl]phenyl]-N,N-dimethyl-propan-1-amine] | 1.5 ± 0.1 µM |  |  | 2.2 µM | 0.49 | > 100 µM |  |
| Cc1cn(-c2cccc(CO)c2)nc1-c1ccc(CN(C)CCCN(C)C)cc1 [Compound 57, (3-{3-[4-({[3-(Dimethylamino)propyl](methyl)amino}methyl)phenyl]-4-methyl-1H-pyrazol-1-yl}phenyl)methanol] | 2.9 ± 1 µM |  |  | 8.5 µM | 0.71 | > 100 µM |  |
| Cc1cn(-c2cccc(CN3CCN(C)CC3)c2)nc1-c1cccc(CN(C)C)c1 [Compound 65, N,N-dimethyl-1-[3-[4-methyl-1-[3-[(4-methylpiperazin-1-yl)methyl]phenyl]pyrazol-3-yl]phenyl]methanamine] | 2 ± 0.7 µM |  |  | 2.8 µM | 0.63 | > 100 µM |  |
| Cc1cn(-c2cccc(CN(C)C)c2)nc1-c1cccc(CN(C)CCCN(C)C)c1 [Compound 70, N′-[[3-[1-[3-(Dimethylaminomethyl)phenyl]-4-methyl-pyrazol-3-yl]phenyl] Methyl]-N,N,N′-trimethyl-propane-1,3-diamine] | 1.5 ± 0.1 µM |  |  | 1.7 µM | 0.30 | 51 µM |  |
| N′-[[4-[4-[3-(Dimethylamino)propyl]-3-[4-[3-(dimethylamino)propyl]phenyl] Pyrazol-1-yl]phenyl]methyl]-N,N,N′-trimethyl-propane-1,3-diamine [Compound 33] |  |  | 9.2 ± 0.4 µM |  | 0.98 |  | 8.9 µM |

The next lines start with results.

| IC50 (Aβ1–40 peptide secretion; [2]) | IC50 (Aβ1–40 peptide secretion; [3]) | IC50 (Aβ1–40 peptide secretion; SY5Y-APP^WT cells, 24 h treatment, mean ± SD of at least three experiments in triplicate, read-out: Aβ1–40 IC50) | Molecule | EC (20-fold increase) ([1]; Homo sapiens) | p62/LC3 (p62/LC3) | CC50 at 72 h (in vitro) | EC (20-fold increase) [1] |
| --- | --- | --- | --- | --- | --- | --- | --- |
| 1.3 ± 0.1 µM | ~1 µM |  | Cc1cn(-c2cccc(CN(C)C)c2)nc1-c1ccc(CN(C)CCCN(C)C)cc1 [Compound 67, {[4-(1-{3-[(Dimethylamino)methyl]phenyl}-4-methyl-1H-pyrazol-3-yl)phenyl]methyl} [3-(Dimethylamino)propyl]methylamine] | 1.2 µM | 0.51 | 12 µM |  |
| 1.2 ± 0.1 µM | ~1 µM |  | Cc1cn(-c2cccc(CN3CCN(C)CC3)c2)nc1-c1cccc(CN(C)CCCN(C)C)c1 [Compound 71, N,N,N′-Trimethyl-N′-[[3-[4-methyl-1-[3-[(4-methylpiperazin-1-yl)methyl]phenyl]pyrazol-3-yl]phenyl]methyl]propane-1,3-diamine] | 1 µM | 0.34 | 25 µM |  |
